# Test results from patent US20100144626A1, “Treatment of Multi-Drug Resistant Bacterial Infections” (priority 2006, published 2010).
# “Also recorded” adds a separate entry of the source. Like-named read-outs stand apart in the source and are kept apart here.
# Key:
# Assay type in all cases: cell-based
# [1] = test system: strains of Staphylococci and Enterococci with reduced susceptibility to vancomycin; assay: Growth inhibition, summary of MIC testing; conditions: summary in words
# Description: (§1) In example experiments miconazole nitrate, was dissolved in methanol and econazole nitrate and clotrimazole were dissolved in DMSO and methanol respectively. Other solvents that may be used include caster oil, pyridine, DMSO and 0.9% saline. For IV administration agents may be solubilised in polyethoxylated caster oil, or cyclodextrins such as sulfobutylether7-βcyclodextrin or hydroxypropyl-β-cyclodextrin and lactic acid. Minimum inhibitory concentrations (MICs) of a range of clinical and control bacterial organisms were measured according to BSAC (British Society for Antimicrobial Chemotherapy) guidelines, described briefly as follows;
# (§2) Stock solutions were prepared at concentrations of 1000 mg/L and 100 mg/L. The appropriate amounts of each stock solution were added to separate Petri dishes give the following final concentrations (after the addition of 20 mL molten agar): 128, 64, 32, 16, 8, 4, 2, 1, 0.5, 0.25, 0.12, 0.06, 0.03, 0.015 mg/L.
# (§3) The test organisms were grown overnight in 5 mL IST broth. Using a dilution in 0.9% saline of 1:500 for Gram-negative organisms and 1:100 for Gram-positive organisms, the appropriate agar plates were inoculated using a multipoint inoculator.
# (§4) Plates were incubated at 37° C. in air for 18-20 hours.
# (§5) The MIC is the minimum amount of an antibiotic at which there is no visible growth of bacteria. Tiny single colonies or faint hazes were not counted as growth.
# Gram-negative organisms = assay: Growth inhibition, summary of MIC testing; conditions: summary in words
# Description: as §1, §2, §3, §4, §5
# [2] = test system: Enterococcus faecalis (VRE) E8 VanA; assay: MIC, agar dilution (BSAC guidelines); conditions: E. faecalis (VRE) E8 VanA
# Description: as §1
# (§6) Preparation of Agar Plates and Broths
# (§7) Stock solutions of each agent were prepared using the formula:
# (§8) Where P=μg of active compound per mg (μg/mg) • V=volume required (mL) • C=final concentration of solution (mg/L) • W=weight of agent (mg) to be dissolved in volume V (mL)
# as §2
# (§9) Volumes (20 mL) of cooled molten IST agar (oxoid) was added to each Petri dish and mixed by swirling.
# (§10) After drying, the plates were stored at 4° C. and protected from light. Plates were used on the day of preparation.
# as §3, §4, §5
# [3] = test system: VISA, strain USA/VISA 5827; assay: MIC, agar dilution (BSAC guidelines); conditions: Staphylococcus aureus
# Description: as §1, §6, §7, §8, §2, §9, §10, §3, §4, §5
# [4] = test system: Klebsiella pneumoniae ESBL 700603; assay: MIC, agar dilution (BSAC guidelines)
# Description: as §1, §6, §7, §8, §2, §9, §10, §3, §4, §5
# [5] = test system: Staphylococcus epidermidis ATCC 1228; assay: MIC, agar dilution (BSAC guidelines)
# Description: as §1, §6, §7, §8, §2, §9, §10, §3, §4, §5
# [6] = test system: Pseudomonas aeruginosa NCTC 10662; assay: MIC, agar dilution (BSAC guidelines)
# Description: as §1, §6, §7, §8, §2, §9, §10, §3, §4, §5
# [7] = test system: Escherichia coli NCTC 10418; assay: MIC, agar dilution (BSAC guidelines)
# Description: as §1, §6, §7, §8, §2, §9, §10, §3, §4, §5
# [8] = test system: VISA, strain VISA 3900 UK; assay: MIC, agar dilution (BSAC guidelines); conditions: Staphylococcus aureus
# Description: as §1, §6, §7, §8, §2, §9, §10, §3, §4, §5
# [9] = test system: Enterococcus faecium (VRE) VanR B145344C LFE; assay: MIC, agar dilution (BSAC guidelines); conditions: E. faecium (VRE) VanR B145344C LFE
# Description: as §1, §6, §7, §8, §2, §9, §10, §3, §4, §5
# [10] = test system: Enterococcus faecium (VRE) NCTC 7171; assay: MIC, agar dilution (BSAC guidelines)
# Description: as §1, §6, §7, §8, §2, §9, §10, §3, §4, §5
# [11] = test system: Enterococcus faecium (VRE) E15 VanA ATCC 4147; assay: MIC, agar dilution (BSAC guidelines)
# Description: as §1, §6, §7, §8, §2, §9, §10, §3, §4, §5
# [12] = test system: Enterococcus gallinarum (VRE) E1 NCTC 12359 VanC1; assay: MIC, agar dilution (BSAC guidelines)
# Description: as §1, §6, §7, §8, §2, §9, §10, §3, §4, §5
# [13] = test system: Enterococcus faecium (VRE) E19 UAA/522 VanB; assay: MIC, agar dilution (BSAC guidelines); conditions: E. faecium (VRE) E19 UAA/522 VanB
# Description: as §1, §6, §7, §8, §2, §9, §10, §3, §4, §5
# [14] = test system: Acinetobacter Baumannii ATCC 19606; assay: MIC, agar dilution (BSAC guidelines)
# Description: as §1, §6, §7, §8, §2, §9, §10, §3, §4, §5
# [15] = test system: VISA, strain USA/VISA 5836; assay: MIC, agar dilution (BSAC guidelines); conditions: Staphylococcus aureus
# Description: as §1, §6, §7, §8, §2, §9, §10, §3, §4, §5
# [16] = replicate 1, read-out: Minimum inhibitory concentration (MIC)
# [17] = replicate 2, read-out: Minimum inhibitory concentration (MIC)
# [18] = replicate 3, read-out: Minimum inhibitory concentration (MIC)
smiles,measurement,setting,value
Clc1ccc(COC(Cn2ccnc2)c2ccc(Cl)cc2Cl)cc1 (centres unmarked) [Econazole],activity against strains of Staphylococci and Enterococci with reduced susceptibility to vancomycin,[1],good activity; also recorded: capable of inhibiting the growth
same,activity against Gram-negative organisms,Gram-negative organisms,no significant activity
same,MIC,[2]; [16],7 µg/mL
same,MIC,[2]; [17],> 6 µg/mL
same,MIC,[2]; [18],> 6 µg/mL
same,MIC,[3]; [16],1.5 µg/mL
same,MIC,[3]; [17],2 µg/mL
same,MIC,[3]; [18],2.5 µg/mL
same,MIC,"[4]; ESBL700603, K. pneumoniae ESBL 700603, replicate 1, read-out: Minimum inhibitory concentration (MIC)",> 10 µg/mL
same,MIC,"[4]; ESBL700603, K. pneumoniae ESBL 700603, replicate 2, read-out: Minimum inhibitory concentration (MIC)",> 6 µg/mL
same,MIC,"[4]; ESBL700603, K. pneumoniae ESBL 700603, replicate 3, read-out: Minimum inhibitory concentration (MIC)",> 6 µg/mL
same,MIC,"[5]; ATCC1228, S. epidermidis ATCC 1228, replicate 1, read-out: Minimum inhibitory concentration (MIC)",4 µg/mL
same,MIC,"[5]; ATCC1228, S. epidermidis ATCC 1228, replicate 2, read-out: Minimum inhibitory concentration (MIC)",2 µg/mL
same,MIC,"[5]; ATCC1228, S. epidermidis ATCC 1228, replicate 3, read-out: Minimum inhibitory concentration (MIC)",2.5 µg/mL
same,MIC,"[6]; NCTC10662, P. aeruginosa NCTC 10662, replicate 1, read-out: Minimum inhibitory concentration (MIC)",> 10 µg/mL
same,MIC,"[6]; NCTC10662, P. aeruginosa NCTC 10662, replicate 2, read-out: Minimum inhibitory concentration (MIC)",> 6 µg/mL
same,MIC,"[6]; NCTC10662, P. aeruginosa NCTC 10662, replicate 3, read-out: Minimum inhibitory concentration (MIC)",> 6 µg/mL
same,MIC,"[7]; NCTC10418, E. coli NCTC 10418, replicate 1, read-out: Minimum inhibitory concentration (MIC)",> 10 µg/mL
same,MIC,"[7]; NCTC10418, E. coli NCTC 10418, replicate 2, read-out: Minimum inhibitory concentration (MIC)",> 6 µg/mL
same,MIC,"[7]; NCTC10418, E. coli NCTC 10418, replicate 3, read-out: Minimum inhibitory concentration (MIC)",> 6 µg/mL
same,MIC,[8]; [16],1.5 µg/mL
same,MIC,[8]; [17],2 µg/mL
same,MIC,[8]; [18],2 µg/mL
same,MIC,[9]; [16],3.5 µg/mL
same,MIC,[9]; [17],5 µg/mL
same,MIC,[9]; [18],2.5 µg/mL
same,MIC,"[10]; E. faecium (VRE) NCTC 7171, replicate 1, read-out: Minimum inhibitory concentration (MIC)",4 µg/mL
same,MIC,"[10]; E. faecium (VRE) NCTC 7171, replicate 2, read-out: Minimum inhibitory concentration (MIC)",> 6 µg/mL
same,MIC,"[10]; E. faecium (VRE) NCTC 7171, replicate 3, read-out: Minimum inhibitory concentration (MIC)",> 6 µg/mL
same,MIC,"[11]; E. faecium (VRE) E15 VanA ATCC 4147, replicate 1, read-out: Minimum inhibitory concentration (MIC)",3 µg/mL
same,MIC,"[11]; E. faecium (VRE) E15 VanA ATCC 4147, replicate 2, read-out: Minimum inhibitory concentration (MIC)",4.5 µg/mL
same,MIC,"[11]; E. faecium (VRE) E15 VanA ATCC 4147, replicate 3, read-out: Minimum inhibitory concentration (MIC)",3 µg/mL
same,MIC,"[12]; E. gallinarum (VRE) E1 NCTC 12359 VanC1, replicate 1, read-out: Minimum inhibitory concentration (MIC)",3 µg/mL
same,MIC,"[12]; E. gallinarum (VRE) E1 NCTC 12359 VanC1, replicate 2, read-out: Minimum inhibitory concentration (MIC)",5.5 µg/mL
same,MIC,"[12]; E. gallinarum (VRE) E1 NCTC 12359 VanC1, replicate 3, read-out: Minimum inhibitory concentration (MIC)",3 µg/mL
same,MIC,[13]; [16],2 µg/mL
same,MIC,[13]; [17],4.5 µg/mL
same,MIC,[13]; [18],2 µg/mL
same,MIC,"[14]; ATCC19606, Acinetobacter Baumannii ATCC 19606, replicate 1, read-out: Minimum inhibitory concentration (MIC)",> 10 µg/mL
same,MIC,"[14]; ATCC19606, Acinetobacter Baumannii ATCC 19606, replicate 2, read-out: Minimum inhibitory concentration (MIC)",> 6 µg/mL
same,MIC,"[14]; ATCC19606, Acinetobacter Baumannii ATCC 19606, replicate 3, read-out: Minimum inhibitory concentration (MIC)",> 6 µg/mL
same,MIC,[15]; [16],2 µg/mL
same,MIC,[15]; [17],4.5 µg/mL
same,MIC,[15]; [18],4 µg/mL
